Assay results taken from patent publication EP3643303A1, “COMPOUNDS FOR USE IN THE TREATMENT OR PREVENTION OF FIBROTIC DISEASES; PHARMACEUTICAL, COSMETIC COMPOSITIONS AND USES THEREOF” (InnovativeHealth Group SL, priority 2018, dated 2020).

Assays:
[1] = target: T1, TRPV-1 (Homo sapiens, UniProt Q8NER1); assay: Capsaicin-induced intracellular calcium mobilization (Fura-2) in HEK-293T-TRPV1 cells; format: cell-based; set-up: expressed in transfected cells; host or cells: HEK-293T; details: capsaicin 1 µM; Fura-2 AM; Figure 2A
T1 sequence (Q8NER1 whole entry): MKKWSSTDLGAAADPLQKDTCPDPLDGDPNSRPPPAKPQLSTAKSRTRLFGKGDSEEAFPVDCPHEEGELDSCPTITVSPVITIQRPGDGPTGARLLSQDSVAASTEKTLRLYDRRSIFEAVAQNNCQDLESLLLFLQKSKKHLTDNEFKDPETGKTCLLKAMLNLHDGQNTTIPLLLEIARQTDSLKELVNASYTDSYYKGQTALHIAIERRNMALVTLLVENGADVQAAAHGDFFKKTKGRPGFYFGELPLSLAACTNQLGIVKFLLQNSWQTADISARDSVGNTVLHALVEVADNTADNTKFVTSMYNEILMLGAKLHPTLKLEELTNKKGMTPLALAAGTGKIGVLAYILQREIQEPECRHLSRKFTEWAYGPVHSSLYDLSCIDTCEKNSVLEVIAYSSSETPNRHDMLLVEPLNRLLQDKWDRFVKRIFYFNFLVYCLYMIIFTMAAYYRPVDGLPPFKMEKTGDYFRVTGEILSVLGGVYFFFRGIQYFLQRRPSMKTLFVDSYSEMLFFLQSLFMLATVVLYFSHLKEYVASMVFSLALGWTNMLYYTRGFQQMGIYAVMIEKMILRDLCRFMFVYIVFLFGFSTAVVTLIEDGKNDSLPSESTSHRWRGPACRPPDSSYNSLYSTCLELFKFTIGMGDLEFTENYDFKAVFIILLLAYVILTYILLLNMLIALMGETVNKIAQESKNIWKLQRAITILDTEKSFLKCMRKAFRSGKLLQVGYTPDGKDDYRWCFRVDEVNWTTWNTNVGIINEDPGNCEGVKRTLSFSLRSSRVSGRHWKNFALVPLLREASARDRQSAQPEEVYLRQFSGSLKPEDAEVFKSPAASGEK
Protocol: Next, the effect of (+)CBD and (-)CBD on TRPV-1 activity was investigated. TRPV-1 is an ionotropic receptor that upon activation by a specific agonist such as capsaicin mobilize intracellular calcium in TRPV-1 expressing cells. Moreover, TRPV-1-induced calcium exerts cytotoxicity in non-neuronal cells overexpressing this receptor. To explore the effect of (+)CBD on calcium mobilization HEK-293T-TRPV1 cells were cultured in 96-well plates (10^3 cells/well) and loaded with Fura 2 acetyoxymethyl ester (Fura-2 AM; 8 µM) (Molecular Probes, Carlsbad, CA) in Dulbecco's modified Eagle's medium (containing 110 mg/l pyruvate) supplemented with 10% FBS and incubated (40 min, 37°C, 5% CO2). The cells were preincubated with (+)CBD and after 15 sec treated with capsaicin (1µM). Changes in intracellular free calcium concentration (intracellular [Ca^2+]free) were measured by digital microscopy equipped with ratiometric recording of single cells. (BD Pathway 855 Bioimager). The field of cells was monitored by sequential dual excitation, 352 and 380 nm, and the analysis of the image ratios used methods described previously to calculate changes in intracellular [Ca^2+]free. The ratio images were acquired every 6 s. At the end of experiments, the cells were exposed to ionomycin (30 s, 1 µM) to obtain a maximal response.

[2] = target: T1, TRPV-1; assay: Capsaicin-induced cytotoxicity (YOYO-1, Incucyte) in HEK-293T-TRPV1 cells; format: cell-based; set-up: expressed in transfected cells; host or cells: HEK-293T; details: Capsaicin 1 µM for 3 h, Figure 2B
Protocol: Capsaicin-induced cytotoxicity as a model of TRPV-1 agonistic assay was also investigated in HEK-293T-TRPV1 cells. The cells (2x10^4/well) were cultured in triplicate in 96-well microtiter plates in 200 µL of complete medium and incubated with (-)CBD or (+)CBD and then stimulated with the agonist Capsaicin (1 µM) for 3 h. Capzasepine (10 µM) was used as the positive control of TRPV-1 antagonism. Then, TRPV-1 induced cytotoxicity was measured by fluorescence using the die YOYO-1 (Life Technologies). YOYO-1 was diluted in cell culture medium and added to a final concentration of 0.1 µM to both experimental and control wells. YOYO-1 is a cell impermeant cyanine dimer nucleic acid stain that can only enter cells with a compromised plasma membrane and fluorescently stain the nuclear DNA. By adding YOYO-1 to damaged cells an increase in YOYO-1 fluorescence is detected. Treated cells are placed in an Incucyte FLR imaging system, and the YOYO-1 fluorescence is measured after 3 h. […] Object counting analysis is performed using the Incucyte FLR software to calculate the total number of YOYO-1 fluorescence positive cells and total DNA containing objects (end point). The cytotoxicity index is calculated by dividing the number of YOYO-1 fluorescence positive objects by the total number of DNA containing objects for each treatment group.

[3] = tested on: BLM-induced fibrosis; assay: Bleomycin (BLM) mouse model of skin fibrosis, histology and observation; format: in vivo, Mice
Protocol: The bleomycin (BLM) mice model is widely used to evaluate potential anti-inflammatory and anti-fibrotic therapies for SSc. BLM causes inflammation in a short period of time, characterized by elevation of proinflammatory cytokines and growth factors that peak around day 14 of BLM exposure. […] The inflammatory model of SSc was used to study (-)CBD preventive effects. Fibrosis was induced by daily subcutaneous administration of BLM (50 µg/mice; 100 µl) (Mylan, Barcelona, Spain) for 3 weeks. Treatments were administered in parallel and consisted of daily intraperitoneal (i.p.) injections of (-)CBD (20 mg/kg), or vehicle (4% DMSO, 6.2% Tween20, saline; 100 µl). Subcutaneous injections of 0.9% NaCl served as a control. Mice were acclimated to manipulators for a week previously to the experiments in order to reduce stress and allow the detection of subtle changes in behavior by researchers. […] Mice were sacrificed by cervical dislocation and the back skin was removed and processed for histological examination or was frozen for further analysis.
Mast cells degranulation as well as macrophages and lymphocyte accumulation are the hallmark of BLM-induced fibrosis and play important roles during the inflammatory phase of SSc. Mast cells degranulation can be identified by toluidine blue staining and macrophage accumulation by staining with a mAb that identifies F4/80^+ cells. Skin sections ([…]) were stained toluidine blue. For immunohistochemical detection of macrophages F4/80 (1:50; MCA497, Bio-Rad) antibody was used. Slides were developed with diaminobenzidine chromogen (Merck Millipore) and counterstained in Harris hematoxylin. Slides were photographed, digitalized using a Leica DFC420c camera and analyzed using Image J software.

[4] = tested on: Nrf2 pathway; assay: Nrf2 activation (ARE-Luc luciferase) in HaCaT-ARE-Luc keratinocytes; format: cell-based; details: 6 h, increasing concentrations; Figure 7
Source text: Nrf2 is a transcription factor which, upon activation in response to inflammatory or oxidative stress, activates a robust anti-inflammatory and cytoprotective transcription program. Therefore, Nrf2 activation may represent a novel approach for the treatment of scleroderma and other fibrotic diseases. Thus, the effect of CBD isomers on the activation of the Nrf2 pathway in the keratinocyte cell line HaCaT-ARE-Luc, containing the Nqo1 Antioxidant Response Element (ARE)-Luc reporter plasmid stably transfected, was explored. ARE is activated by all members of the CNC family of factors (Nrf1, Nrf2, Nrf3 and p45 NF-E2). The cells are cultivated in 96-well plates at the concentration of 2x10^4 cells/well in a CO2 incubator at 37°C. For induction of Nrf2 activation the cells were treated with increasing concentrations of the CBD isomers for 6 h. As a positive control the cells were treated with 0,01 mM of Tert-butyl-hydroperoxide (TBHP) for 6 h. […] Luciferase activity was measured using TriStar^2 Berthold/LB942 multimode reader (Berthold Technologies) following the instructions of the luciferase assay kit (Promega, Madison, WI, USA). The background obtained with the lysis buffer was subtracted in each experimental value, and the specific transactivation expressed as fold induction over basal levels (untreated cells).

[5] = BLM 3 weeks, 20 mg/kg i.p. daily, Figure 8

| Structure (SMILES) | capsaicin-induced calcium mobilization [1] | capsaicin-induced cytotoxicity (cytotoxicity index) [2] | dermal thickness [3, 5] | loss of adipose tissue layer induced by BLM [3, 5] | piloerection, hunched appearances ([3]; during the experimental procedures, 20 mg/kg i.p. daily) | behavioral changes ([3]; during the protocols, 20 mg/kg i.p. daily) | Mice weight ([3]; evaluated weekly, between experimental groups, 20 mg/kg i.p. daily) | infiltration of F4/80^+ macrophages ([3]; immunostaining, versus BLM untreated mice, 20 mg/kg i.p., Figure 10) | number of degranulated mast cells in the lesioned skin ([3]; toluidine blue, BLM 3 weeks, 20 mg/kg i.p., Figure 9) | activation of the Nrf2 pathway [4] |
| --- | --- | --- | --- | --- | --- | --- | --- | --- | --- | --- |
| C=C(C)[C@@H]1CCC(C)=C[C@H]1c1c(O)cc(CCCCC)cc1O [(-)CBD, 2-[(1R,6R)-3-methyl-6-prop-1-en-2-ylcyclohex-2-en-1-yl]-5-pentylbenzene-1,3-diol] | prevent capsaicin-induced calcium mobilization | prevent capsaicin-induced calcium mobilization | attenuated | not were able to recover | Neither piloerection nor hunched appearances were appreciated | No behavioral changes | no significant changes | significantly reduced | prevented | able to activate the Nrf2 pathway in keratinocytes and in a concentration-dependent manner |
| C=C(C)[C@H]1CCC(C)=C[C@@H]1c1c(O)cc(CCCCC)cc1O [(+)CBD, (+)Cannabidiol] | – | prevent capsaicin-induced calcium mobilization | – | – | – | – | – | – | – | able to activate the Nrf2 pathway in keratinocytes and in a concentration-dependent manner |
